In the supplement of paper PMC10307832:

Tests used:
Assay in all cases: relative viability (nuclei count vs DMSO), 5 days (fraction); higher = more cells survive
[1] = compound: CCn1c(-c2nonc2N)nc2cnc(Oc3cccc(NC(=O)c4ccc(OCCN5CCOCC5)cc4)c3)cc21 + CC1(C)CCC(c2ccc(Cl)cc2)=C(CN2CCN(c3ccc(C(=O)NS(=O)(=O)c4ccc(N[C@H](CCN5CCOCC5)CSc5ccccc5)c(S(=O)(=O)C(F)(F)F)c4)cc3)CC2)C1 [Navitoclax] (partner 0.5 µM)
Outline: (§1)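 Five library-drug doses in √10 steps were combined with a fixed anchor-drug dose, or a single drug was given alone, by pin tool to lung cancer cell lines in 1536-well plates the day after seeding. Nuclei were stained and counted after 5 days. Relative viability is the nuclei count in treated wells over that in vehicle wells, taken as the median of duplicate plates.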

Mirin + Decitabine = compound: N=C1NC(=O)/C(=C/c2ccc(O)cc2)S1 [Mirin] + Nc1ncn([C@H]2C[C@H](O)[C@@H](CO)O2)c(=O)n1 [Decitabine] (partner 2 µM)
Outline: as §1

Mirin + AZD7762 = compound: N=C1NC(=O)/C(=C/c2ccc(O)cc2)S1 [Mirin] + NC(=O)Nc1cc(-c2cccc(F)c2)sc1C(=O)N[C@H]1CCCNC1 [AZD7762] (partner 0.2 µM)
Outline: as §1

Mirin + Vorinostat = compound: N=C1NC(=O)/C(=C/c2ccc(O)cc2)S1 [Mirin] + O=C(CCCCCCC(=O)Nc1ccccc1)NO [Vorinostat] (partner 1 µM)
Outline: as §1

Row | Cell Line | relative viability ([1]; first compound 0.04 µM) | relative viability ([1]; first compound 0.1265 µM) | relative viability ([1]; first compound 1.265 µM) | relative viability ([1]; first compound 4 µM) | relative viability (Mirin + Decitabine; first compound 0.25 µM) | relative viability (Mirin + Decitabine; first compound 0.7906 µM) | relative viability (Mirin + Decitabine; first compound 2.5 µM) | relative viability (Mirin + Decitabine; first compound 7.906 µM) | relative viability (Mirin + Decitabine; first compound 25 µM) | relative viability (Mirin + AZD7762; first compound 0.25 µM) | relative viability (Mirin + AZD7762; first compound 0.7906 µM) | relative viability (Mirin + AZD7762; first compound 2.5 µM) | relative viability (Mirin + AZD7762; first compound 7.906 µM) | relative viability (Mirin + AZD7762; first compound 25 µM) | relative viability ([1]; first compound 0.4 µM) | relative viability (Mirin + Vorinostat; first compound 0.25 µM) | relative viability (Mirin + Vorinostat; first compound 0.7906 µM) | relative viability (Mirin + Vorinostat; first compound 2.5 µM) | relative viability (Mirin + Vorinostat; first compound 7.906 µM) | relative viability (Mirin + Vorinostat; first compound 25 µM)
1 | NCI-H1792 | 0.732 | 0.58 | 0.348 | 0.518 | 0.5 | 0.504 | 0.665 | 0.516 | 0.573 | 0.729 | 0.803 | 0.826 | 0.636 | 0.77 | – | – | – | – | – | –
2 | LXF-289 | 1.05 | 1.05 | 0.991 | 1.06 | 0.347 | 0.394 | 0.335 | 0.347 | 0.387 | 1.07 | 1.3 | 1.16 | 1.36 | 1.47 | 1.09 | 0.727 | 0.818 | 0.713 | 0.8 | 0.836
3 | HCC-827 | 1.09 | 0.98 | 1.02 | 0.841 | 0.17 | 0.262 | 0.36 | 0.308 | 0.351 | 0.209 | 0.184 | 0.242 | 0.157 | 0.225 | 0.982 | 0.184 | 0.863 | 0.937 | 0.828 | 0.987
4 | EMC-BAC-2 | 1.44 | 1.2 | 1.16 | 1.19 | 0.997 | 1.02 | 0.977 | 0.949 | 1.09 | 0.977 | 1.1 | 1.26 | 0.92 | 1.05 | 1.18 | 0.426 | 0.402 | 0.493 | 0.35 | 0.6
5 | SW 900 | – | – | – | – | 0.326 | 0.413 | 0.438 | 0.414 | 0.384 | 0.67 | 0.669 | 0.669 | 0.518 | 0.641 | – | 0.608 | 0.482 | 0.423 | 0.583 | 0.401
6 | SK-MES-1 | 1.32 | 1.35 | – | 1.05 | 0.347 | 0.446 | 0.372 | 0.292 | 0.329 | – | – | – | – | – | 1.1 | 1.12 | 1.46 | 1.18 | 1.12 | 1.24
7 | NCI-H2023 | 1.18 | 0.963 | 0.773 | 0.688 | 0.237 | 0.238 | 0.216 | 0.228 | 0.225 | – | – | – | – | – | 1.04 | 0.683 | 0.724 | 0.653 | 0.628 | 0.595
8 | NCI-H1299 | 1.02 | 1.01 | 0.885 | 0.803 | – | – | – | – | – | – | – | – | – | – | 0.887 | – | – | – | – | –
9 | NCI-H1650 | 1.79 | 1.31 | 1.08 | 1.05 | 0.479 | 0.385 | 0.403 | 0.31 | 0.364 | – | – | – | – | – | 1.34 | 0.497 | 0.656 | 0.51 | 0.482 | 0.495
10 | Calu-6 | 0.835 | 0.759 | 0.353 | 0.306 | – | – | – | – | – | – | – | – | – | – | 0.64 | – | – | – | – | –
11 | NCI-H650 | – | – | – | – | 0.32 | 0.335 | 0.306 | 0.294 | 0.354 | 1.1 | 1.03 | 0.968 | 0.992 | 0.974 | – | 0.484 | 0.338 | 0.414 | 0.389 | 0.448
12 | NCI-H661 | – | – | – | – | 0.587 | 0.569 | 0.539 | 0.501 | 0.525 | – | – | – | – | – | – | 0.789 | 0.839 | 0.74 | 0.776 | 0.77
13 | NCI-H1703 | 1.03 | 0.886 | 0.296 | 0.233 | – | – | – | – | – | 0.115 | 0.148 | 0.146 | – | 0.117 | 0.474 | – | – | – | – | –
14 | EBC-1 | 0.519 | 0.341 | 0.323 | 0.261 | – | – | – | – | – | – | – | – | – | – | 0.429 | – | – | – | – | –
15 | NCI-H520 | 1.21 | 1.13 | 0.555 | 0.385 | 0.531 | 0.563 | 0.494 | 0.374 | 0.479 | – | – | – | – | – | 0.955 | 0.67 | 0.807 | 0.729 | 0.561 | 0.527
16 | NCI-H2342 | – | – | – | – | 0.77 | 0.775 | 0.684 | – | 0.633 | 0.581 | 0.451 | 0.487 | – | 0.459 | – | 0.852 | 0.817 | 0.845 | – | 0.757
17 | COR-L23 | 1.04 | 0.817 | 0.172 | 0.157 | 0.447 | 0.505 | 0.466 | 0.426 | 0.409 | – | – | – | – | – | 0.59 | 0.453 | 0.585 | 0.488 | 0.327 | 0.31
18 | NCI-H1648 | – | – | – | – | 0.559 | – | 0.51 | 0.525 | 0.418 | 0.722 | – | 0.652 | 0.641 | 0.576 | – | 0.421 | – | 0.601 | 0.424 | 0.299
19 | SW 1573 | 0.911 | 1.19 | 0.562 | 0.223 | 0.605 | 0.61 | 0.482 | 0.412 | 0.247 | – | – | – | – | – | 0.807 | 0.867 | 0.772 | 0.765 | 0.308 | 0.56
20 | NCI-H522 | – | – | – | – | 0.576 | 0.611 | 0.668 | 0.654 | 0.524 | 0.813 | 0.805 | 0.83 | 0.861 | 0.595 | – | 1.04 | 1.1 | 0.89 | 0.692 | 0.695
21 | SK-LU-1 | 1.07 | 0.619 | 0.296 | 0.229 | 0.713 | 0.618 | 0.8 | 0.494 | 0.509 | – | – | – | – | – | 0.383 | 0.771 | 0.823 | 0.815 | 0.599 | 0.6
22 | A549 | 1.37 | 1.08 | 0.0937 | 0.0515 | 0.311 | 0.298 | 0.278 | 0.305 | 0.301 | – | – | – | – | – | 0.828 | – | – | – | – | –
23 | LCLC-103H | – | – | – | – | 0.692 | 0.759 | 0.736 | 0.797 | 0.871 | 0.875 | 0.779 | 0.784 | 0.844 | 0.803 | – | 0.774 | 0.695 | 0.79 | 0.793 | 0.868
